Laboratory results: patent US10618903B2, “Heteroaryl substituted aminopyridine compounds” (BRISTOL-MYERS SQUIBB COMPANY, priority 2015, dated 2020)

Assays:
[1] = tested on: IL-6 levels in human whole blood stimulated with a TLR2 agonist; test: IRAK4 Whole Blood Assay (lipoteichoic acid/TLR2-stimulated IL-6); type: cell-based; conditions: Homo sapiens, lipoteichoic acid 10 μg/mL, IL-6 readout
Procedure, shortened: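 ACD-A-anticoagulated human whole blood was preincubated with compounds for 60 min at 37 °C under 5% CO2. It was then stimulated with 10 μg/mL lipoteichoic acid (final) in RPMI for 5 h. IL-6 in plasma supernatants was measured by flow cytometry bead assay.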

IRAK4 = IRAK4 (Homo sapiens (Human), UniProt Q9NWZ3); test: IRAK4 Inhibition Assay; type: biochemical; conditions: ATP 500 μM; IRAK4 0.6 nM
Procedure, shortened: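 Enzyme 0.6 nM, ATP 500 μM, FL-peptide 1.5 μM, DMSO 1.6%; HEPES pH 7.2/MgCl2/Brij 35/DTT buffer. RT, 60 min, EDTA stop. Mobility-shift product/substrate ratio; % inhib vs no-enzyme and vehicle controls.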

Caco Permeability Assay = type: in vitro ADME; conditions: human, Caco-2, Caco-2 cells, 3 μM compound

Sequence of IRAK4 (Q9NWZ3 whole entry): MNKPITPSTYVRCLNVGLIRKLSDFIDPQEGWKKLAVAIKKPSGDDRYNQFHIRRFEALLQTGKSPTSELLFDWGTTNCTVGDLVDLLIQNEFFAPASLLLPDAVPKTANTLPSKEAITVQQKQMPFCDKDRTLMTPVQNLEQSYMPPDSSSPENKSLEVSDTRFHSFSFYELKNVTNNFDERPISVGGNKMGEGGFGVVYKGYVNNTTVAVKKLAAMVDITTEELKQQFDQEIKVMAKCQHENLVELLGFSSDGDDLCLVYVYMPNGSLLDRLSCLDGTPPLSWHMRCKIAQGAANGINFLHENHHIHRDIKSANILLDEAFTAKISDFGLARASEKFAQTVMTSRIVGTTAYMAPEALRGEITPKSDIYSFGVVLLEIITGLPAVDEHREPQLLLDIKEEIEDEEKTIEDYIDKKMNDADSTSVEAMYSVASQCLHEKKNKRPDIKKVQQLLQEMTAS

Row | Compound | EC50 [1] | IC50 (IRAK4) | Papp at 2 h, 3 µM (Caco Permeability Assay)
1 | CC(C)(O)[C@H](F)CNC(=O)c1cnc(-c2cnc3cc(C#N)cnn23)cc1Nc1cnn(CC(F)F)c1 [Example 260, (R)-6-(7-cyanoimidazo[1,2-b]pyridazin-3-yl)-4-((1-(2,2-difluoroethyl)-1H-pyrazol-4-yl)amino)-N-(2-fluoro-3-hydroxy-3-methylbutyl) nicotinamide] | 80 nM | 3 nM | < 1.5 ×10⁻⁶ cm/s
2 | CC(C)(O)[C@H](F)CNC(=O)c1cnc(-c2cnc3cc(Cl)cnn23)cc1Nc1cnn(CC(F)F)c1 [Example 262, (R)-6-(7-chloroimidazo[1,2-b]pyridazin-3-yl)-4-((1-(2,2-difluoroethyl)-1H-pyrazol-4-yl)amino)-N-(2-fluoro-3-hydroxy-3-methylbutyl)nicotinamide] | 520 nM | 1 nM | 2.6 ×10⁻⁶ cm/s
3 | CC(C)(F)[C@H](F)CNC(=O)c1cnc(-c2cnc3cc(Cl)cnn23)cc1Nc1cnn(CC(F)F)c1 [Example 263, (R)-6-(7-chloroimidazo[1,2-b]pyridazin-3-yl)-N-(2,3-difluoro-3-methylbutyl)-4-((1-(2,2-difluoroethyl)-1H-pyrazol-4-yl)amino)nicotinamide] | 300 nM | 2 nM | 21.3 ×10⁻⁶ cm/s
4 | CC(F)(F)Cn1cc(Nc2cc(-c3cnc4cc(C#N)cnn34)ncc2C(=O)NC[C@@H](F)C(C)(C)O)cn1 [Example 265, (R)-6-(7-cyanoimidazo[1,2-b]pyridazin-3-yl)-4-((1-(2,2-difluoropropyl)-1H-pyrazol-4-yl)amino)-N-(2-fluoro-3-hydroxy-3-methylbutyl)nicotinamide] | 440 nM | 2 nM | < 1.5 ×10⁻⁶ cm/s
5 | CCn1cc(Nc2cc(-c3cnc4cc(Cl)cnn34)ncc2C(=O)NC[C@@H](F)C(C)(C)O)cn1 [Example 266, (R)-6-(7-chloroimidazo[1,2-b]pyridazin-3-yl)-4-((1-ethyl-1H-pyrazol-4-yl)amino)-N-(2-fluoro-3-hydroxy-3-methylbutyl) nicotinamide] | 570 nM | 3 nM | 2.9 ×10⁻⁶ cm/s
6 | CCn1cc(Nc2cc(-c3cnc4cc(C#N)cnn34)ncc2C(=O)NC[C@@H](F)C(C)(C)O)cn1 [Example 267, (R)-6-(7-cyanoimidazo[1,2-b]pyridazin-3-yl)-4-((1-ethyl-1H-pyrazol-4-yl)amino)-N-(2-fluoro-3-hydroxy-3-methylbutyl)nicotinamide] | 130 nM | 2 nM | < 1.5 ×10⁻⁶ cm/s
7 | CC(C)(O)[C@H](F)CNC(=O)c1cnc(-c2cnc3cc(Cl)cnn23)cc1Nc1cnn(C(F)F)c1 [Example 270, (R)-6-(7-chloroimidazo[1,2-b]pyridazin-3-yl)-4-((1-(difluoromethyl)-1H-pyrazol-4-yl)amino)-N-(2-fluoro-3-hydroxy-3-methylbutyl) nicotinamide] | 820 nM | 3 nM | 7.8 ×10⁻⁶ cm/s
8 | CC(C)(O)[C@H](F)CNC(=O)c1cnc(-c2cnc3cc(Cl)cnn23)cc1Nc1cnn(C2CC(F)(F)C2)c1 [Example 277, (R)-6-(7-chloroimidazo[1,2-b]pyridazin-3-yl)-4-((1-(3,3-difluorocyclobutyl)-1H-pyrazol-4-yl)amino)-N-(2-fluoro-3-hydroxy-3-methylbutyl)nicotinamide] | 490 nM | 2 nM | 3.6 ×10⁻⁶ cm/s
9 | CCCn1cc(Nc2cc(-c3cnc4cc(C#N)cnn34)ncc2C(=O)NC[C@@H](F)C(C)(C)O)cn1 [Example 278, (R)-6-(7-cyanoimidazo[1,2-b]pyridazin-3-yl)-N-(2-fluoro-3-hydroxy-3-methylbutyl)-4-((1-propyl-1H-pyrazol-4-yl)amino)nicotinamide] | 360 nM | 1 nM | < 1.5 ×10⁻⁶ cm/s
